In patent US20230219900A1, “Sodium 2-[(4S)-8-fluoro-2-[4-(3-methoxyphenyl)piperazin-1-yl]-3-[2-methoxy-5-(trifluoromethyl)phenyl]-4H-quinazolin-4-yl]acetate monohydrate, its preparation and use” (AIC246 AG & CO. KG, priority 2020, published 2023):

Legend:
Type in all cases: physicochemical
[1] = Stability experiments: ageing (ambient conditions); details: for Time stable at ambient conditions: monohydrate
[2] = Stability experiments: ageing (humidity chamber)
[3] = Thermal stability / decomposition by thermogravimetric analysis (TGA)
Protocol: Thermogravimetric analysis (TGA): Thermogravimetric analyses were recorded in a Mettler Toledo TGA/SDTA851 with a balance MT1 type. Approximately 3-4 mg of sample were weighed (using a MX5 Mettler Toledo microbalance) into 40 μL aluminium crucibles with a pinhole lid and heated under nitrogen (10 mL/min) at 10° C./min from 30° C. to 300° C. Programs used: Data collection and evaluation with software STARe.

[4] = Stability experiments: heating (vacuum oven); details: 2-3 mbar
[5] = Storage stability in an aqueous medium; details: in particular at physiological pH
[6] = Solubility in an aqueous medium; details: in particular at physiological pH
Dynamic vapor sorption = experiment: Dynamic vapor sorption
Protocol: The sodium (S)-{8-fluoro-2-[4-(3-methoxyphenyl)piperazine-1-yl]-3-[2-methoxy (trifluoromethyl)phenyl]-3,4-dihydroquinazoline-4-yl}acetate monohydrate obtained from examples 07 and 08 were analyzed using X-Ray Diffraction, NMR spectroscopy, Thermal gravimetric analysis, Differential scanning calorimetry and dynamic vapor sorption.

Row | SMILES | Stability under ambient conditions (in words) [1] | Stability, ageing (ambient conditions) ([1]; 25° C., 30-40% RH, 24 hours) | Stability, ageing (ambient conditions) ([1]; within 24 hours) | Stability, ageing (humidity chamber) ([2]; 25° C./60% RH, 24-72 hours) | Decomposition temperature (TGA) ([3]; TGA) | Stability, ageing (ambient conditions, closed vial) ([1]; after 4 weeks) | Time stable at ambient conditions ([1]; listed as Form B) | Time stable at ambient conditions [1] | Stability, heating (vacuum oven) ([4]; 40° C., 15 h) | Stability, heating (vacuum oven) ([4]; 50° C., 60 h) | Stability, ageing (humidity chamber) ([2]; 25° C./60% RH, 72 hours) | Stability, ageing (humidity chamber) ([2]; 30° C./75% RH, 48 hours) | Ageing at higher temperatures and higher humidity ([2]; higher temperatures and higher humidity) | Storage stability [5] | Solubility [6] | Dynamic vapor sorption weight increase (Dynamic vapor sorption; from 10 to 80% RH) | Dynamic vapor sorption weight increase (Dynamic vapor sorption; from 80 to 90% RH) | Temperature up to which thermally stable (TGA) ([3]; as judged by TGA)
1 | COc1cccc(N2CCN(C3=Nc4c(F)cccc4[C@H](CC(=O)[O-])N3c3cc(C(F)(F)F)ccc3OC)CC2)c1.[Na+] [Form A, Sodium (S)-{8-fluoro-2-[4-(3-methoxyphenyl)piperazine-1-yl]-3-[2-methoxy-5-(trifluoromethyl)phenyl]-3,4-dihydroquinazoline-4-yl}acetate] | not stable under ambient conditions | 25° C., 30-40% RH, 24 hours: Turns into | Complete transition into Form B within in | 25° C./60% RH, 24-72 hours: Turns into | Decomposition at ca. 250 °C |  |  |  |  |  |  |  |  |  |  |  |  | 
2 | COc1cccc(N2CCN(C3=Nc4c(F)cccc4[C@H](CC(=O)[O-])N3c3cc(C(F)(F)F)ccc3OC)CC2)c1.O.[Na+] [sodium letermovir monohydrate, sodium 2-[(4S)-8-fluoro-2-[4-(3-methoxyphenyl)piperazin-1-yl]-3-[2-methoxy-5-(trifluoromethyl)phenyl]-4H-quinazolin-4-yl]acetate monohydrate] |  |  |  |  |  | No significant changes after 4 weeks. | over 6 months | over 4 weeks | 40° C., 2-3 mbar, 15 h: No changes, | 50° C., 2-3 mbar, 60 h: No changes | 25° C./60% RH, 72 hours: minor changes | 30° C./75% RH, 48 hours: amorphous | does not age | good storage stability | readily soluble | >9.5% weight increase from 10 to 80% RH | >8% weight increase from 80 to 90% RH | above 80 °C
